# According to US11572590B2, “Methods for evaluating tumor cell spheroids using 3D microfluidic cell culture device” (Dana-Farber Cancer Institute, Inc., priority 2017, dated 2023):
# Key:
# [1] = test system: CT26 spheroids lacking immune cells; assay: Viability of CT26 spheroids lacking immune cells; type: cell-based
# Description: (§1) Fresh tumor specimens (murine and human patients) were received in media (DMEM) on ice and minced in a 10 cm dish (on ice) using sterile forceps and scalpel. Minced tumor was resuspended in DMEM ([…], […] sodium pyruvate, 1:100 penicillin-streptomycin) (Corning CellGro, Manassas, Va.) +10% FBS (Gemini Bio-Products, West Sacramento, Calif.), 100 U/mL collagenase type IV (Life Technologies, Carlsbad, Calif.), and 15 mM HEPES (Life Technologies, Carlsbad, Calif.), except for CT26 tumors that were prepared in RPMI. Samples were pelleted and resuspended in 10-20 mL media. Red blood cells were removed from visibly bloody samples using RBC Lysis Buffer (Boston Bio-Products, Ashland, Mass.). […]
# Dual labeling was performed by loading microfluidic device with Nexcelom ViaStain™ AO/PI Staining Solution (Nexcelom, CS2-0106). Following incubation with the dyes (20 minutes at room temperature in the dark), images were captured on a Nikon Eclipse 80i fluorescence microscope equipped with Z-stack (Prior) and CoolSNAP CCD camera (Roper Scientific). […] Live and dead cell quantitation was performed by measuring total cell area of each dye. […]
# B16F10 MDOTS = assay: Bead-based cytokine profiling of B16F10 MDOTS; type: cell-based, murine; settings: Cmpd1 (1 μM) ± αPD-1
# Description: as §1
# Two multiplex assays were performed utilizing a bead-based immunoassay approach, the Bio-Plex Pro™ Human Cytokine 40-plex Assay (Cat #171AK99MR2) and Bio-Plex Pro™ Mouse Cytokine Panel 1, 23-plex (Cat #M60009RDPD) on a Bio-plex 200 system (Cat #171000201). […] Fold changes relative to the MDOT/PDOT control were calculated and plotted as log 2FC. Lower and upper limits of quantitation (LLOQ/ULOQ) were imputed from standard curves for cytokines above or below detection. […]
compound,measurement,setting,value
"N#Cc1cc(-c2ncnc(Nc3ccc(N4CCN(C5COC5)CC4)cc3)n2)ccc1OC1CCOCC1 [Compound 1, 5-(4-((4-(4-(oxetan-3-yl)piperazin-1-yl)phenyl)amino)-1,3,5-triazin-2-yl)-2-((tetrahydro-2H-pyran-4-yl)oxy)benzonitrile]",cytotoxic effects on CT26 cell line spheroids (viability),[1],without cytotoxic effects
same,"immune suppressive chemokines (e.g., CCL2, CCL5) in B16F10 MDOTS",B16F10 MDOTS,downregulation
same,induction of G-CSF and related innate immune response cytokines in B16F10 MDOTS,B16F10 MDOTS,without concomitant induction
